The results in this text go back to ChEMBL document CHEMBL5143714, “Discovery of BMS-986339, a Pharmacologically Differentiated Farnesoid X Receptor Agonist for the Treatment of Nonalcoholic Steatohepatitis” (J Med Chem, 2022).

For data set [1], the target named is T1, Bile acid receptor (Homo sapiens) (UniProt Q96RI1).
T1 sequence (whole entry): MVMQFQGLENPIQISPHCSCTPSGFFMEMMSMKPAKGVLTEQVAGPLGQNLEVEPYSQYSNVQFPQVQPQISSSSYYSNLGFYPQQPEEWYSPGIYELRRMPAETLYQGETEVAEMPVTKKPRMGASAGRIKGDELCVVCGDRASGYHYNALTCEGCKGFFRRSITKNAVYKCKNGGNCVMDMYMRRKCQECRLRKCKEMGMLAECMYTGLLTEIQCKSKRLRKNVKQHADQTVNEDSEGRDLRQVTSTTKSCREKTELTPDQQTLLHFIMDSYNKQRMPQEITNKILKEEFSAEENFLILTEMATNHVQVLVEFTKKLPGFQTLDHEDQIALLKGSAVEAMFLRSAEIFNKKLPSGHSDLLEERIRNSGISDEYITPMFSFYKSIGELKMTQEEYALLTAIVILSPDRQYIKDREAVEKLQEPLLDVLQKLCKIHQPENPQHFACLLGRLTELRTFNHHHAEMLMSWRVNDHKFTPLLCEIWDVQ
Kind of data set: Agonist activity at LBD-fused human FXR in HEK293 cells incubated for 30 min by envision plate reader method relative to GW2064. The format is cell-based. As to conditions: filed as agonist.

Data set [2] deals with T2, Bile acid receptor (Homo sapiens, UniProt Q96RI1).
T2 sequence (Q96RI1 whole entry): T1 sequence (whole entry)
Kind of data set: Agonist activity at Gal4-fused human FXR in HEK293 cells incubated for 15 min by luciferase reporter assay. Format: cell-based. (In general: In a reporter assay the amount or activity of a reporter protein is the signal.)

Data set [3] deals with T3, Bile acid receptor (Mus musculus, UniProt Q60641).
T3 sequence (Q60641 whole entry): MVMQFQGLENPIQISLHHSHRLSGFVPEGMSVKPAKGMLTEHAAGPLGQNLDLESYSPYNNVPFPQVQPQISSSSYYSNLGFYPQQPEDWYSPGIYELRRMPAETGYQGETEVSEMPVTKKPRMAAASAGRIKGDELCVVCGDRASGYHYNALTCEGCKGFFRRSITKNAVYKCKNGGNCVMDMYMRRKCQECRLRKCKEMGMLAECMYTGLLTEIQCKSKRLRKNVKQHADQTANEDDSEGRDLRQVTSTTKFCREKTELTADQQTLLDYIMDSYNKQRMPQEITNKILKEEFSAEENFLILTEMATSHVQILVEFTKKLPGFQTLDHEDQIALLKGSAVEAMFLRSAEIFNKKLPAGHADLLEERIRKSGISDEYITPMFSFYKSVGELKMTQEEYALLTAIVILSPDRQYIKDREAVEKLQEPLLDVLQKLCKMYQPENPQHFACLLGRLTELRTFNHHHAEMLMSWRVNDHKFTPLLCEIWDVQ
Kind of data set: Agonist activity at mouse LBD fused FXR in HEK293 cells incubated for 30 min by envision plate reader method. Format: cell-based.

Data set [4] in a line: Metabolic stability in rat liver microsome assessed as parent compound remaining at […] measured after 10 mins. Format: ADME. The settings on record: liver microsomes, read-out: Stability. In general terms: Liver microsomes are vesicles of endoplasmic reticulum, rich in cytochrome P450 enzymes.
The target of data set [5] is T4, Nuclear receptor subfamily 1 group I member 2 (Homo sapiens, UniProt O75469).
T4 sequence (O75469 whole entry): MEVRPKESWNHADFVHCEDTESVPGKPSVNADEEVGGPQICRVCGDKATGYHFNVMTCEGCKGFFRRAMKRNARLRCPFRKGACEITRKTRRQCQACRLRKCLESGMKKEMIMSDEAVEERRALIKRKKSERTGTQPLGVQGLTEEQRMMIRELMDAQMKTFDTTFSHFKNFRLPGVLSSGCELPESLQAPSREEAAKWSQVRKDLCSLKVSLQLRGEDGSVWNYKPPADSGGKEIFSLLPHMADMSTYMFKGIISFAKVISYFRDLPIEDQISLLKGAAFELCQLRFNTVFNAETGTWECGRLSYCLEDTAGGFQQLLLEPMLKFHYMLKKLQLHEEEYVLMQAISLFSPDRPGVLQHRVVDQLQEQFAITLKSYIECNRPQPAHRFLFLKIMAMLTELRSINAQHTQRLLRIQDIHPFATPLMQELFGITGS
The data set can be described thus: Transactivation of PXR (unknown origin). Format: ADME.

Data set [6] concerns the target Cytochrome P450 2C9 (Homo sapiens, UniProt P11712). Kind of data set: Inhibition of recombinant CYP2C9 (unknown origin) using fluorogenic substrate preincubated for 15 min followed by NADPH addition measured after 2 hrs by fluorescence method. The format is ADME.
A short description of data set [7]: Volume of distribution at steady state in C57BL6 mouse at 1 mg/kg, iv. The format is ADME, organism-based. The settings on record: in vivo, read-out: Vdss.
A short description of data set [8]: AUC (total) in C57BL6 mouse at 5 mg/kg, po. Format: ADME, organism-based. Also noted: dose 5 mg/kg, route po. As to conditions: in vivo.
Data set [9] can be described thus: AUC (total) in Sprague-Dawley rat at 1 mg/kg, iv. The format is ADME, organism-based. Also noted: dose 1 mg/kg, route iv. As to conditions: in vivo.
Data set [10] addresses T5, Cytochrome P450 2C8 (Homo sapiens, UniProt P10632).
T5 sequence (P10632 whole entry): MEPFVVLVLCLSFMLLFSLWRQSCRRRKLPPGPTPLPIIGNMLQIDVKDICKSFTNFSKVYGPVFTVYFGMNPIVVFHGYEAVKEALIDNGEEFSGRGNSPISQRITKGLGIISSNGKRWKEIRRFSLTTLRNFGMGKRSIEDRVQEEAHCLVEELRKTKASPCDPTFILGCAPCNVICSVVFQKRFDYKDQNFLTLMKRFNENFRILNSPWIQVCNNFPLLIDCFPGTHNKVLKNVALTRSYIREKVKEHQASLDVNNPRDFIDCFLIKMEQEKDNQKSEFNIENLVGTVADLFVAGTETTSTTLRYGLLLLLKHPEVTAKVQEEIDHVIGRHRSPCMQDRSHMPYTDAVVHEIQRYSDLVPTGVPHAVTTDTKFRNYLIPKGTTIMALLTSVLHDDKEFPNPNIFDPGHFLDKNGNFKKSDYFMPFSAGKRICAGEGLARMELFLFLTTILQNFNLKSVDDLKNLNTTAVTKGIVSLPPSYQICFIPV
Kind of data set: Inhibition of CYP2C8 in human liver microsomes using fluorogenic substrate preincubated for 15 min followed by NADPH addition measured after 2 hrs by fluorescence based assay. The format is ADME, Microsome.

Data set [11] has as its target Bile salt export pump (Homo sapiens, UniProt O95342). Kind of data set: Inhibition of BSEP (unknown origin).
In data set [12] the target is T6, UDP-glucuronosyltransferase 1A1 (Homo sapiens, UniProt P22309).
T6 sequence (P22309 whole entry): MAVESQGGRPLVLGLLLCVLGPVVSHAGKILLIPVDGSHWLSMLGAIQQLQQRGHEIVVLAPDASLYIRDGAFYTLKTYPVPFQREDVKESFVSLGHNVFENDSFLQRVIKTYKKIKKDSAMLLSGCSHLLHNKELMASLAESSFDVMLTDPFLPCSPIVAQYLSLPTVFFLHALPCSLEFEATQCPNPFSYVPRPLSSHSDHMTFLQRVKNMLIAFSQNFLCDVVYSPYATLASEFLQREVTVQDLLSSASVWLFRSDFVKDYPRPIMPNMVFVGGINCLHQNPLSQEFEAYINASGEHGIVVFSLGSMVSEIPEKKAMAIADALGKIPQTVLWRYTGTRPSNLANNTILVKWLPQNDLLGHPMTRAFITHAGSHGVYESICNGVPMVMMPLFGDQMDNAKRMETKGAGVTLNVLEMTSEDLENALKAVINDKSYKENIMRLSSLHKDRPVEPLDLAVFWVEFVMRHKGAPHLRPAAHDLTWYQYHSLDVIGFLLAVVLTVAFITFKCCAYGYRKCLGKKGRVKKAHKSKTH
The data set can be described thus: Inhibition of human UGT1A1.

Cytochrome P450 2C9, sequence (P11712 whole entry): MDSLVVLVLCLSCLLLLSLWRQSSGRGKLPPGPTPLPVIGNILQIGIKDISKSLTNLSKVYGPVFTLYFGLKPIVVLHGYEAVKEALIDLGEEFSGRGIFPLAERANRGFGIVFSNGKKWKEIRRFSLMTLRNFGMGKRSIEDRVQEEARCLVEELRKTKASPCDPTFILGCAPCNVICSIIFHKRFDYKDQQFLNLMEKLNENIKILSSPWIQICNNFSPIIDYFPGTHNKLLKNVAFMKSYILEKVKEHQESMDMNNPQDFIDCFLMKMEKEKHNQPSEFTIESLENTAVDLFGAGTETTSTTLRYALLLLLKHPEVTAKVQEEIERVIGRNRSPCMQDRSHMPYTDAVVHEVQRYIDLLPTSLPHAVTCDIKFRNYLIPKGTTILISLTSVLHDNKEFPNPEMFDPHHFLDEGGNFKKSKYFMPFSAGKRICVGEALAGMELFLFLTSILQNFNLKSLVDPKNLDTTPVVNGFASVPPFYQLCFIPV
Bile salt export pump, sequence (O95342 whole entry): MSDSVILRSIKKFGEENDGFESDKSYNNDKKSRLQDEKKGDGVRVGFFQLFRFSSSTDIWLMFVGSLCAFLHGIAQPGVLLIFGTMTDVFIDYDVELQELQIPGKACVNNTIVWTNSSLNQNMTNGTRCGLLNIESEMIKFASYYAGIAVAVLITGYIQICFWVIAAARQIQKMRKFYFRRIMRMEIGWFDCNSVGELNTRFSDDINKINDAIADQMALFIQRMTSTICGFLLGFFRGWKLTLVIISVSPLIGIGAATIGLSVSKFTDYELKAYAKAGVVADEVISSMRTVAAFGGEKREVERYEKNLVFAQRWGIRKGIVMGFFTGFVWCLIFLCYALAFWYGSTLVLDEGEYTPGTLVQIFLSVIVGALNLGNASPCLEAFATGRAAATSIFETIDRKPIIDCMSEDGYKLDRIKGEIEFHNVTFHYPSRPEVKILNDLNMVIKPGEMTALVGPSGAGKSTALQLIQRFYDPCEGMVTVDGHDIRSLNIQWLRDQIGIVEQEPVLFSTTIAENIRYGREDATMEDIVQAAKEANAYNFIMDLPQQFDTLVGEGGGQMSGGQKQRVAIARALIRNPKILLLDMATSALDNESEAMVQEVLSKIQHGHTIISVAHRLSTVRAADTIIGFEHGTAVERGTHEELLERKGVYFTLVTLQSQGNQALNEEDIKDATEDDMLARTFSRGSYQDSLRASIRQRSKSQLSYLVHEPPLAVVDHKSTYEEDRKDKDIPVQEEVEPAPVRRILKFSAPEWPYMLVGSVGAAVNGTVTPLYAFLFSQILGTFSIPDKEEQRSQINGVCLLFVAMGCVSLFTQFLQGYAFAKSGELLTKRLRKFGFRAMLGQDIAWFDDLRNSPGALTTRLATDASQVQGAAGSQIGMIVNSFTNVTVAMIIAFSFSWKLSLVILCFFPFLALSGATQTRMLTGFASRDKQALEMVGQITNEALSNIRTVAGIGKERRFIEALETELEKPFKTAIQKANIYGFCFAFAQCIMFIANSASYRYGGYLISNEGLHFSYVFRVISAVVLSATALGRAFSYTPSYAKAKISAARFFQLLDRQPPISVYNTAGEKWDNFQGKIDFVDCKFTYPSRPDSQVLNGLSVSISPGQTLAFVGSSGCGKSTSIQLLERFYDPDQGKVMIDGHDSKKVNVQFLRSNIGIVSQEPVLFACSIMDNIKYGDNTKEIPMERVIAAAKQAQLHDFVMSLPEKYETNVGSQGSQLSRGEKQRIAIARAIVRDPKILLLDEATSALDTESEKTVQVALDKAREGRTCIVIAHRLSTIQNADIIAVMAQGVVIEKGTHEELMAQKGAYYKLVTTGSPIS

`CC(C)(O)c1ccc(-c2cccc(N(CC34CCC(c5noc(C(C)(C)F)n5)(CC3)CC4)C(=O)[C@H]3C[C@](O)(C(F)(F)F)C3)c2)cc1` displayed an Emax in data set [1] of 189%. The concentration for a half-maximal effect (EC50) in [2] turned out to be 34 nM; in data set [3], 14 nM; in data set [5], 50000 nM. Also, the remaining at 10 min in [4] was 93%. For the same molecule, the 50% inhibitory concentration (IC50) in data set [6] is 5000 nM; in data set [10], more than 20000 nM; in data set [11], 1400 nM; in data set [12], 1500 nM. In addition, in data set [7], the Vd was 2.2 L/kg. Also, the AUC in [8] turned out to be 56.6 µM·h; in [9] it was 6.6 µM·h.

By Emax is commonly meant the greatest response seen or fitted, relative to the assay's reference. Usually EC50 stands for the concentration at which the effect is half-maximal. As usually defined, the IC50 is the concentration needed to halve the response being measured. As usually defined, the AUC is the area under the concentration-time curve, a measure of exposure. Read a high AUC as high exposure.
